The values below come from US9359616B2, “Ribosomal polynucleotides and related expression systems” (The Scripps Research Institute, priority 2012, dated 2016).

Molecules are shown by their SMILES.

One test relates to wild type 40S subunits. Kind of test: 35S-Met/Cys pulse labeling of transfected N2a cells cultured with increasing concentrations of pactamycin (wild type ribosomes). It counts as cell-based, mouse. The conditions noted are these: 100 ng/ml pactamycin, could be further blocked at higher concentrations, SDS-PAGE of 35S-labeled lysates (FIG. 4d). An excerpt:
There were no reports of functionally tested examples of nucleotide changes conferring antibiotic resistance in higher eukaryotes. Pactamycin affects translation by binding to rRNA in the E-site of the small subunit and disrupting the positioning of mRNA at this site. The result of pactamycin-binding is a block in […] and the accumulation of di-peptides resulting from aborted initiation events. Analyzed were the effects of mutations in mouse 18S rRNA at four residues, G963, A964, C1065 and C1066 in SEQ ID NO:23. These residues correspond, respectively, to positions 693, 694, 795 and 796 at the E-site of E. coli 16S rRNA which were identified from crystal structures. Unless otherwise noted, the numbering of these sites in mammalian 18S rRNA sequences is based on that in E. coli 16S rRNA. […] Pactamycin resistance was assessed by 35S-Met/Cys pulse labeling of transfected cells in the presence of 100 ng/ml antibiotic. […] Mutated ribosomes were also analyzed for their ability to translate a luciferase mRNA in cells transfected with a luciferase reporter plasmid (pGL4.13), and cultured in the presence of 100 ng/ml pactamycin (FIG. 4b).
The levels of synthetic 18S rRNA for constructs with each mutation were monitored using the hybridization tag and found no substantial differences that could account for the difference in translation between G693A and the other mutations (FIG. 4c). […]

The subject of test [1] is mutated subunits (G693A 18S rRNA). Kind of test: 35S-Met/Cys pulse labeling of transfected N2a cells cultured with increasing concentrations of pactamycin (G693A mutated ribosomes). The note with it: even at the highest concentration tested of 6,400 ng/ml pactamycin; N2a cells (FIG. 4d). It counts as cell-based, mouse.

With `CC(=O)c1cccc(N[C@H]2[C@H](N)[C@@](NC(=O)N(C)C)([C@H](C)O)[C@@](C)(O)[C@@]2(O)COC(=O)c2c(C)cccc2O)c1` [pactamycin], the “translation from wild type 40S subunits” value with wild type 40S subunits was “substantially blocked”. Further, the “translation from the mutated subunits” value in test [1] is given as “unaffected”.
